Experiments:
BcGalB [1] = target: T1, BcGalB (Heyndrickxia coagulans, UniProt G2TH90); experiment: inhibition of ONP-β-gal hydrolysis; assay type: biochemical; conditions: 0-100 mM sugar, 5 min preincubation, standard assay 10 mM ONP-β-gal, 100 mM sodium citrate pH 5.0, 60 °C
T1 construct: recombinant in E. coli Rosetta(DE3) pLysS, pET28b, C-terminal His-tag, ~75 kDa monomer, hexamer in solution

BcGalB [2] = target: T1, BcGalB; experiment: release of ortho-nitrophenol at […] nm, non-linear regression; assay type: biochemical; conditions: 100 mM sodium citrate pH 5.0, 60 °C
[3] = target: B. coagulans MA-13 β-galactosidase expressed in E. coli (BcGalB) (Bacillus coagulans MA-13); experiment: SEC-MALS; S200 16/60 column with Mini DAWN Treos light scattering and QELS; 1 mg protein at 1 mg/ml; 0.5 ml/min; 100 mM sodium phosphate pH 8.0, 1 mM DTT; data not shown

## OC1OC[C@@H](O)[C@@H](O)[C@@H]1O (stereo partly drawn) [D-arabinose]
BcGalB [1]
  retained activity at the highest concentration: > 66%

## OC1OC[C@@H](O)[C@H](O)[C@H]1O (stereo partly drawn) [D-xylose]
BcGalB [1]; highest concentration 100 mM, at least 66% retained
  retained activity at the highest concentration: > 66%

## O=[N+]([O-])c1ccccc1O[C@@H]1O[C@H](CO)[C@H](O)[C@H](O)[C@H]1O [ONP-β-gal]
BcGalB [2]
  Km: 723 µM

## B. coagulans MA-13 β-galactosidase expressed in E. coli (BcGalB) (enzyme)
[3]
  stoichiometry N: 6

From publication PMC7977261, “Prebiotic properties of Bacillus coagulans MA-13: production of galactoside hydrolyzing enzymes and characterization of the transglycosylation properties of a GH42 β-galactosidase” (Microbial Cell Factories, 2021)
